{"source": "patent US20250025550A1", "about": "“ADJUVANT COMPOUNDS AND FORMULATIONS” (ADJUVANCE TECHNOLOGIES, INC., priority 2021, published 2025)", "key": {"[1]": {"experiment": "Optical density (clarity) of TQL-1055 in HP-β-CD solution", "format": "physicochemical", "details": "for Dissolution of TQL-1055: heat and sonication one hour at 60° C.", "protocol": "(§1) Two solutions were prepared: (1) 15% w/v HP-β-CD in 1 ml of PBS, add TQL-1055 (crushed) to achieve 1 mg/ml; and (2) 20% w/v HP-β-CD in 1 ml of PBS; add TQL-1055 (crushed) to achieve 1 mg/ml. Both solutions were solubilized using heat and sonication for one hour at 60° C.\nOptical density shown below. Clarity is defined against background solvent optical density ([…]):\nThree solutions were prepared: (1) 15% w/v HP-β-CD in 1 ml of PBS, add TQL-1055 (crushed) to achieve 2 mg/ml; (2) 20% w/v HP-β-CD in 1 ml of PBS; add TQL-1055 (crushed) to achieve 2 mg/ml; and (3) 25% w/v HP-β-CD in 1 ml of PBS; add TQL-1055 (crushed) to achieve 2 mg/ml. Solutions were solubilized using heat and sonication for one hour at 60° C. […]"}, "[2]": {"experiment": "Solubility in water at physiological pH", "format": "physicochemical", "details": "free acid form"}, "[3]": {"experiment": "pH of TQL-1055 HP-β-CD solutions (Example 1)", "format": "physicochemical", "protocol": "as §1"}, "[4]": {"experiment": "Stability of TQL-1055 in HP-β-CD solution: HPLC", "format": "physicochemical", "design": "unit not given here", "details": "1 mg/ml TQL-1055, 20% w/v HP-β-CD in PBS", "protocol": "(§2) Solutions containing 20% w/v HP-β-CD and 1 mg/ml dissolved TQL-1055 were prepared according to the following procedure: (1) crush TQL-1055 and sonicate in PBS; (2) add HP-β-CD solution to create a final concentration of 1 mg/ml TQL-1055, 20% HP-β-CD in PBS buffer (3) sonicate for ˜30-60 minutes at 60C (4) obtain a clear solution having 1 mg/ml TQL-1055; 20% w/v HP-R-CD. Control samples containing 20% HP-β-CD were prepared. Optical density and pH were measured at t=1 day, 1 week, 1 month, and 2 months. HPLC was conducted at t=1 day, 1 week, 1 month, and 2 months."}, "[5]": {"experiment": "Stability of TQL-1055 in HP-β-CD solution: pH", "format": "physicochemical", "details": "1 mg/ml TQL-1055, 20% w/v HP-β-CD in PBS", "protocol": "as §2"}, "CD-i mice": {"test_system": "CD-i mice", "details": "mouse, in vivo"}, "[6]": {"experiment": "Stability of TQL-1055 in HP-β-CD solution: clarity (optical density)", "format": "physicochemical", "details": "1 mg/ml TQL-1055, 20% w/v HP-β-CD in PBS", "protocol": "as §2"}, "[7]": {"details": "1 mg/ml TQL-1055 in 15% w/v HP-β-CD in PBS, 48 hours (stored at 5° C.)"}, "[8]": {"details": "1 mg/ml TQL-1055 in 15% w/v HP-β-CD in PBS, 48 hours (stored at RT)"}, "[9]": {"details": "1 mg/ml TQL-1055 in 20% w/v HP-β-CD in PBS, 48 hours (stored at 5° C.)"}, "[10]": {"details": "1 mg/ml TQL-1055 in 20% w/v HP-β-CD in PBS, 48 hours (stored at RT)"}, "[11]": {"details": "2 mg/ml in 15% w/v HP-β-CD in PBS (solution 1)"}}, "note": "Where “and” joins values, the source holds several entries; their conditions need not be identical. Equal values may be shown once."}
{"smiles": "CC1O[C@@H](OC2C(O)[C@@H](NC(=O)CCCCCCCCCCC(=O)O)C(CO)O[C@H]2OC(=O)[C@]23CCC(C)(C)CC2C2=CCC4C5(C)CC[C@H](O)C(C)(C=O)C5CCC4(C)C2(C)CC3O)C(O)C(O)[C@H]1O[C@@H]1OC[C@@H](O)C(O)C1O", "note": "(stereo partly shown) [TQL-1055]", "values": [{"measurement": "Optical density", "setting": "[1]; 1 mg/ml TQL-1055 in 15% w/v HP-β-CD in PBS, 0 hour (after sonication)", "result": 0.055}, {"measurement": "Optical density", "setting": "[1]; 1 mg/ml TQL-1055 in 15% w/v HP-β-CD in PBS, 24 hours (stored at 5° C.)", "result": 0.051}, {"measurement": "Optical density", "setting": "[1]; 1 mg/ml TQL-1055 in 15% w/v HP-β-CD in PBS, 24 hours (stored at RT)", "result": 0.051}, {"measurement": "Optical density", "setting": "[1]; [7]", "result": 0.052}, {"measurement": "Optical density", "setting": "[1]; [8]", "result": 0.051}, {"measurement": "Optical density", "setting": "[1]; 1 mg/ml TQL-1055 in 20% w/v HP-β-CD in PBS, 0 hour (after sonication)", "result": 0.058}, {"measurement": "Optical density", "setting": "[1]; 1 mg/ml TQL-1055 in 20% w/v HP-β-CD in PBS, 24 hours (stored at 5° C.)", "result": 0.050}, {"measurement": "Optical density", "setting": "[1]; 1 mg/ml TQL-1055 in 20% w/v HP-β-CD in PBS, 24 hours (stored at RT)", "result": 0.050}, {"measurement": "Optical density", "setting": "[1]; [9]", "result": 0.056}, {"measurement": "Optical density", "setting": "[1]; [10]", "result": 0.051}, {"measurement": "Dissolution of TQL-1055", "setting": "[1]; 1 mg/ml in 15% and in 20% w/v HP-β-CD in PBS", "result": "dissolved completely"}, {"measurement": "Optical density", "setting": "[1]; 2 mg/ml TQL-1055 in 15% w/v HP-β-CD in PBS, 0 hour (after sonication), replicates", "result": "0.083, 0.083, (2×) and 0.083 (n = 3)"}, {"measurement": "Optical density", "setting": "[1]; 2 mg/ml TQL-1055 in 15% w/v HP-β-CD in PBS, 24 hours (stored at RT), replicates", "result": "0.081, 0.081"}, {"measurement": "Optical density", "setting": "[1]; 2 mg/ml TQL-1055 in 15% w/v HP-β-CD in PBS, 48 hours (stored at RT), replicates", "result": "0.067 and 0.068"}, {"measurement": "Optical density", "setting": "[1]; 2 mg/ml TQL-1055 in 20% w/v HP-β-CD in PBS, 0 hour (after sonication), replicates", "result": "0.061 and 0.066 and 0.068 (n = 3)"}, {"measurement": "Optical density", "setting": "[1]; 2 mg/ml TQL-1055 in 20% w/v HP-β-CD in PBS, 24 hours (stored at RT), replicates", "result": "0.054, 0.054"}, {"measurement": "Optical density", "setting": "[1]; 2 mg/ml TQL-1055 in 20% w/v HP-β-CD in PBS, 48 hours (stored at RT), replicates", "result": "0.049 and 0.053"}, {"measurement": "Optical density", "setting": "[1]; 2 mg/ml TQL-1055 in 25% w/v HP-β-CD in PBS, 0 hour (after sonication), replicates", "result": "0.052 (n = 3) and 0.049 and 0.051"}, {"measurement": "Optical density", "setting": "[1]; 2 mg/ml TQL-1055 in 25% w/v HP-β-CD in PBS, 24 hours (stored at RT), replicates", "result": "0.053 and 0.054"}, {"measurement": "Optical density", "setting": "[1]; 2 mg/ml TQL-1055 in 25% w/v HP-β-CD in PBS, 48 hours (stored at RT), replicates", "result": "0.057 and 0.055"}, {"measurement": "Clarity of solution", "setting": "[1]; [11]", "result": "not completely clear"}, {"measurement": "Optical density (OD)", "setting": "[1]; [11]", "result": "> 0.060"}, {"measurement": "Dissolution of TQL-1055", "setting": "[1]; 2 mg/ml in 20% (solution 2) and 25% (solution 3) w/v HP-β-CD in PBS", "result": "dissolved completely"}, {"measurement": "solubility in water", "setting": "[2]", "result": "poor solubility in water at physiological pH"}, {"measurement": "pH", "setting": "[3]; [7]", "result": "(pH = 7.26)"}, {"measurement": "pH", "setting": "[3]; [8]", "result": "(pH = 7.28)"}, {"measurement": "pH", "setting": "[3]; [9]", "result": "(pH = 7.28)"}, {"measurement": "pH", "setting": "[3]; [10]", "result": "(pH = 7.21)"}, {"measurement": "HPLC", "setting": "[4]; 5 C., 1 month", "result": "106.1 and 107.9"}, {"measurement": "HPLC", "setting": "[4]; 5 C., 1 week", "result": "104.4 and 108.9"}, {"measurement": "HPLC", "setting": "[4]; 5 C., 2 months", "result": "109 and 105"}, {"measurement": "HPLC", "setting": "[4]; 5 C., Day 1", "result": "105.4 and 109.4"}, {"measurement": "HPLC", "setting": "[4]; 25 C., 1 month", "result": "108.7 and 107.5"}, {"measurement": "HPLC", "setting": "[4]; 25 C., 1 week", "result": "109.2 and 106.9"}, {"measurement": "HPLC", "setting": "[4]; 25 C., 2 months", "result": 105}, {"measurement": "HPLC", "setting": "[4]; 25 C., Day 1", "result": "106.1 and 109.4"}, {"measurement": "HPLC", "setting": "[4]; −20 C., 1 month", "result": 109.6}, {"measurement": "HPLC", "setting": "[4]; −20 C., 2 months", "result": "105.3 and 102"}, {"measurement": "HPLC", "setting": "[4]; −20 C., Day 1", "result": "100 and 105.3"}, {"measurement": "pH", "setting": "[5]; 5 C., 1 month", "result": "7.81 and 7.32"}, {"measurement": "pH", "setting": "[5]; 5 C., 1 week", "result": "7.32 and 7.25"}, {"measurement": "pH", "setting": "[5]; 5 C., 2 month", "result": "7.35 and 7.48"}, {"measurement": "pH", "setting": "[5]; 5 C., Day 1", "result": "7.47 and 7.43"}, {"measurement": "pH", "setting": "[5]; 25 C., 1 month", "result": "7.82 and 7.50"}, {"measurement": "pH", "setting": "[5]; 25 C., 1 week", "result": "7.35 and 7.00"}, {"measurement": "pH", "setting": "[5]; 25 C., 2 month", "result": "7.51 and 7.44"}, {"measurement": "pH", "setting": "[5]; 25 C., Day 1", "result": "7.45 and 7.47"}, {"measurement": "pH", "setting": "[5]; −20 C., 1 month", "result": "7.24 and 7.53"}, {"measurement": "pH", "setting": "[5]; −20 C., 1 week", "result": "7.19 and 7.26"}, {"measurement": "pH", "setting": "[5]; −20 C., 2 month", "result": "7.41 and 7.46"}, {"measurement": "pH", "setting": "[5]; −20 C., Day 1", "result": "7.35 and 7.41"}, {"measurement": "Mortality (follow-on studies, text)", "setting": "CD-i mice", "result": "did not result in mortality"}, {"measurement": "Clarity (OD)", "setting": "[6]; 5 C., 1 month", "result": "0.0485 and 0.051"}, {"measurement": "Clarity (OD)", "setting": "[6]; 5 C., 1 week", "result": "0.051 and 0.053"}, {"measurement": "Clarity (OD)", "setting": "[6]; 5 C., 2 month", "result": "0.058 and 0.050"}, {"measurement": "Clarity (OD)", "setting": "[6]; 5 C., Day 1", "result": "0.054 and 0.053"}, {"measurement": "Clarity (OD)", "setting": "[6]; 25 C., 1 month", "result": "0.053 and 0.0455"}, {"measurement": "Clarity (OD)", "setting": "[6]; 25 C., 1 week", "result": "0.049 and 0.052"}, {"measurement": "Clarity (OD)", "setting": "[6]; 25 C., 2 month", "result": "0.051 and 0.05"}, {"measurement": "Clarity (OD)", "setting": "[6]; 25 C., Day 1", "result": "0.052 and 0.050"}, {"measurement": "Clarity (OD)", "setting": "[6]; −20 C., 1 month", "result": "0.049 and 0.0475"}, {"measurement": "Clarity (OD)", "setting": "[6]; −20 C., 1 week", "result": "0.05 and 0.051"}, {"measurement": "Clarity (OD)", "setting": "[6]; −20 C., 2 month", "result": 0.054}, {"measurement": "Clarity (OD)", "setting": "[6]; −20 C., Day 1", "result": "0.056 and 0.052"}]}
